Results as given in publication PMC8286840, “Identifying SARS-CoV-2 antiviral compounds by screening for small molecule inhibitors of Nsp3 papain-like protease” (Biochemical Journal, 2021).
Counter-ions that a name gives are not always drawn. Like-named read-outs stand apart in the source and are kept apart here.

Legend:
[1] = biological target: T1, SARS-CoV-2 PLpro (nsp3 1564–1878) (Severe acute respiratory syndrome coronavirus 2, UniProt P0DTD1); test: biochemical; parameters: FRET-quenched peptide (Pro3) cleavage by PLpro, 10 min pre-incubation, slope over 20 min, normalised to no-compound control; details: low concentration screen, read-out: % of control remaining
[2] = biological target: T1, SARS-CoV-2 PLpro (nsp3 1564–1878); test: biochemical; parameters: FRET-quenched peptide (Pro3) cleavage by PLpro, 10 min pre-incubation, slope over 20 min, normalised to no-compound control; details: high concentration screen, read-out: % of control remaining

Which results are given for CCOC(=O)N1c2ccc(C(F)(F)F)cc2[C@@H](N(Cc2cc(C(F)(F)F)cc(C(F)(F)F)c2)C(=O)OC)C[C@H]1CC [Torcetrapib (CP-529414)]?
remaining activity at 1.25 µM ([1]; Well no.=4749): 95.8%; remaining activity at 3.75 µM ([2]; Well no.=4749): 98.1%

With CN(C)CCOc1ccc(/C(=C(/CCCl)c2ccccc2)c2ccccc2)cc1 [Toremifene] as the compound, how does the remaining activity at 1.25 µM ([1]; Well no.=1966) read?
The remaining activity at 1.25 µM was 104%.

And the remaining activity at 3.75 µM ([2]; Well no.=1966)?
The remaining activity at 3.75 µM was 102%.

For CCC(=O)N1CCN(c2ccc(-n3c(=O)ccc4cnc5ccc(-c6cnc7ccccc7c6)cc5c43)cc2C(F)(F)F)CC1 [Torin 1], which remaining activity at 1.25 µM ([1]; Well no.=4795) is on record?
The remaining activity at 1.25 µM was 106%.

And the remaining activity at 3.75 µM ([2]; Well no.=4795)?
The remaining activity at 3.75 µM was 102%.

How did the remaining activity at 1.25 µM ([1]; Well no.=4787) turn out when Nc1ccc(-c2ccc3ncc4ccc(=O)n(-c5cccc(C(F)(F)F)c5)c4c3c2)cn1 [Torin 2] was run?
The remaining activity at 1.25 µM was 95.6%.

What about the remaining activity at 3.75 µM ([2]; Well no.=4787) of the same compound?
Its remaining activity at 3.75 µM is 97.9%.

Which remaining activity at 1.25 µM ([1]; Well no.=4880) does the source give for CC(C)C[C@@H](C(=O)N[C@H](C(=O)OC1CCCC1)c1ccccc1)[C@H](O)C(=O)NO [Tosedostat (CHR2797)] here?
Its remaining activity at 1.25 µM is 93.4%.

What about the remaining activity at 3.75 µM ([2]; Well no.=4880) of the same compound?
Its remaining activity at 3.75 µM is 88.9%.

With NC1CCN(c2nc3c(cc2F)c(=O)c(C(=O)O)cn3-c2ccc(F)cc2F)C1 (stereo not shown) [Tosufloxacin] as the compound, how does the remaining activity at 1.25 µM ([1]; Well no.=1962) read?
Its remaining activity at 1.25 µM is 98.1%.

What about the remaining activity at 3.75 µM ([2]; Well no.=1962) of the same compound?
Its remaining activity at 3.75 µM is 93.3%.

For COc1ccc(N2CCOCC2)c2sc(NC(=O)N3CCC(C)(O)CC3)nc12 [Tozadenant], which remaining activity at 1.25 µM ([1]; Well no.=7049) is on record?
The remaining activity at 1.25 µM was 103%.

And the remaining activity at 1.25 µM ([1]; Well no.=8115)?
The remaining activity at 1.25 µM was 99%.

And the remaining activity at 3.75 µM ([2]; Well no.=7049)?
Its remaining activity at 3.75 µM is 100%.

What about the remaining activity at 3.75 µM ([2]; Well no.=8115) of the same compound?
The remaining activity at 3.75 µM was 102%.

Which results are given for Cc1cc(Nc2cc(N3CCN(C)CC3)nc(Sc3ccc(NC(=O)C4CC4)cc3)n2)n[nH]1 [Tozasertib]?
remaining activity at 1.25 µM ([1]; Well no.=2895): 101%; remaining activity at 3.75 µM ([2]; Well no.=2895): 103%

With N#Cc1cnc2cnc(NCc3cccnc3)cc2c1Nc1ccc(F)c(Cl)c1 [Tpl2 Kinase Inhibitor] as the compound, how does the remaining activity at 1.25 µM ([1]; Well no.=2662) read?
Its remaining activity at 1.25 µM is 92.4%.

And the remaining activity at 3.75 µM ([2]; Well no.=2662)?
The remaining activity at 3.75 µM was 89.7%.

With CCCCNc1c(C(=O)OCC)c(C)nc2c1cnn2CC [Tracazolate] as the compound, how does the remaining activity at 1.25 µM ([1]; Well no.=1472) read?
Its remaining activity at 1.25 µM is 93.2%.

And the remaining activity at 3.75 µM ([2]; Well no.=1472)?
The remaining activity at 3.75 µM was 93.7%.

How did the remaining activity at 1.25 µM ([1]; Well no.=2002) turn out when COc1cccc([C@@]2(O)CCCC[C@@H]2CN(C)C)c1 [Tramadol] was run?
The remaining activity at 1.25 µM was 104%.

And the remaining activity at 3.75 µM ([2]; Well no.=2002)?
Its remaining activity at 3.75 µM is 104%.

NC[C@H]1CC[C@H](C(=O)O)CC1 [Tranexamic acid] was tested. Which remaining activity at 1.25 µM ([1]; Well no.=1816) did it give?
Its remaining activity at 1.25 µM is 97.3%.

What about the remaining activity at 3.75 µM ([2]; Well no.=1816) of the same compound?
The remaining activity at 3.75 µM was 99.8%.

COc1ccc(/C=C/C(=O)Nc2ccccc2C(=O)O)cc1OC [Tranilast (trans-)] was tested. Which remaining activity at 1.25 µM ([1]; Well no.=7917) did it give?
Its remaining activity at 1.25 µM is 92.9%.

What about the remaining activity at 3.75 µM ([2]; Well no.=7917) of the same compound?
The remaining activity at 3.75 µM was 92%.

Which remaining activity at 1.25 µM ([1]; Well no.=1519) does the source give for COc1ccc(/C=C/C(=O)Nc2ccccc2C(=O)O)cc1OC [Tranilast] here?
Its remaining activity at 1.25 µM is 95.4%.

And the remaining activity at 1.25 µM ([1]; Well no.=1807)?
The remaining activity at 1.25 µM was 96.3%.

And the remaining activity at 1.25 µM ([1]; Well no.=6317)?
The remaining activity at 1.25 µM was 104%.

And the remaining activity at 3.75 µM ([2]; Well no.=1519)?
The remaining activity at 3.75 µM was 94.6%.

What about the remaining activity at 3.75 µM ([2]; Well no.=1807) of the same compound?
The remaining activity at 3.75 µM was 96.1%.

And the remaining activity at 3.75 µM ([2]; Well no.=6317)?
Its remaining activity at 3.75 µM is 97.4%.

What does the source list for CN1C(=O)C[C@H](C(=O)O)[C@H]1c1cccnc1 [Trans-4-Cotininecarboxylic acid]?
remaining activity at 1.25 µM ([1]; Well no.=3200): 95.4%; remaining activity at 3.75 µM ([2]; Well no.=3200): 97.7%

Which results are given for N[C@@H]1C[C@H]1c1ccccc1 [Tranylcypromine hydrochloride]?
remaining activity at 1.25 µM ([1]; Well no.=1399): 100%; remaining activity at 3.75 µM ([2]; Well no.=1399): 105%

What does the source list for O=c1n(CCCN2CCN(c3cccc(Cl)c3)CC2)nc2ccccn12 [Trazodone (hydrochloride)]?
remaining activity at 1.25 µM ([1]; Well no.=7432): 109%; remaining activity at 3.75 µM ([2]; Well no.=7432): 111%

For O=c1n(CCCN2CCN(c3cccc(Cl)c3)CC2)nc2ccccn12 [Trazodone hydrochloride], which remaining activity at 1.25 µM ([1]; Well no.=1339) is on record?
The remaining activity at 1.25 µM was 102%.

What about the remaining activity at 3.75 µM ([2]; Well no.=1339) of the same compound?
Its remaining activity at 3.75 µM is 104%.

Which results are given for Cn1c(=O)cc(N2CCC[C@@H](N)C2)n(Cc2cc(F)ccc2C#N)c1=O [Trelagliptin]?
remaining activity at 1.25 µM ([1]; Well no.=8480): 99.1%; remaining activity at 3.75 µM ([2]; Well no.=8480): 98.9%

COc1cc2c(cc1OC)-c1c/c(=N\c3c(C)cc(C)cc3C)n(C)c(=O)n1CC2 [Trequinsin hydrochloride] was tested. Which remaining activity at 1.25 µM ([1]; Well no.=1379) did it give?
Its remaining activity at 1.25 µM is 98.6%.

And the remaining activity at 3.75 µM ([2]; Well no.=1379)?
Its remaining activity at 3.75 µM is 97.1%.

CC1(C)O[C@@H]2C[C@H]3[C@@H]4CCC5=CC(=O)C=C[C@]5(C)[C@@]4(F)[C@@H](O)C[C@]3(C)[C@]2(C(=O)CO)O1 [Triamcinolone (acetonide)] was tested. Which remaining activity at 1.25 µM ([1]; Well no.=6574) did it give?
Its remaining activity at 1.25 µM is 105%.

What about the remaining activity at 3.75 µM ([2]; Well no.=6574) of the same compound?
Its remaining activity at 3.75 µM is 108%.

For C[C@]12C=CC(=O)C=C1CC[C@H]1[C@@H]3C[C@@H](O)[C@](O)(C(=O)CO)[C@@]3(C)C[C@H](O)[C@@]12F [Triamcinolone], which remaining activity at 1.25 µM ([1]; Well no.=1435) is on record?
Its remaining activity at 1.25 µM is 98.1%.

What about the remaining activity at 1.25 µM ([1]; Well no.=2004) of the same compound?
Its remaining activity at 1.25 µM is 108%.

What about the remaining activity at 1.25 µM ([1]; Well no.=6419) of the same compound?
The remaining activity at 1.25 µM was 94.8%.

And the remaining activity at 3.75 µM ([2]; Well no.=1435)?
The remaining activity at 3.75 µM was 100%.

And the remaining activity at 3.75 µM ([2]; Well no.=2004)?
The remaining activity at 3.75 µM was 106%.

And the remaining activity at 3.75 µM ([2]; Well no.=6419)?
The remaining activity at 3.75 µM was 96.2%.

For Nc1nc(N)c2nc(-c3ccccc3)c(N)nc2n1 [Triamterene], which remaining activity at 1.25 µM ([1]; Well no.=1525) is on record?
The remaining activity at 1.25 µM was 94%.

And the remaining activity at 3.75 µM ([2]; Well no.=1525)?
The remaining activity at 3.75 µM was 91.1%.

Which remaining activity at 1.25 µM ([1]; Well no.=8656) does the source give for NS(=O)(=O)c1cc2c(cc1Cl)NC(C(Cl)Cl)NS2(=O)=O (stereo not shown) [Trichlormethiazide] here?
Its remaining activity at 1.25 µM is 102%.

What about the remaining activity at 3.75 µM ([2]; Well no.=8656) of the same compound?
The remaining activity at 3.75 µM was 99.7%.

With NS(=O)(=O)c1cc2c(cc1Cl)NC(C(Cl)Cl)NS2(=O)=O (stereo not shown) [Trichloromethiazide] as the compound, how does the remaining activity at 1.25 µM ([1]; Well no.=2072) read?
The remaining activity at 1.25 µM was 101%.

What about the remaining activity at 3.75 µM ([2]; Well no.=2072) of the same compound?
Its remaining activity at 3.75 µM is 100%.

CC(C)[C@H]1C(=O)O[C@@H]2CCN3CC=C(COC(=O)[C@](C)(O)[C@]1(C)O)[C@H]23 [Trichodesmine] was tested. Which remaining activity at 1.25 µM ([1]; Well no.=3205) did it give?
Its remaining activity at 1.25 µM is 105%.

And the remaining activity at 3.75 µM ([2]; Well no.=3205)?
The remaining activity at 3.75 µM was 106%.

What does the source list for CC(/C=C/C(=O)NO)=C\[C@@H](C)C(=O)c1ccc(N(C)C)cc1 [Trichostatin A (TSA)]?
remaining activity at 1.25 µM ([1]; Well no.=4617): 106%; remaining activity at 3.75 µM ([2]; Well no.=4617): 107%

How did the remaining activity at 1.25 µM ([1]; Well no.=8252) turn out when Oc1cc(Cl)ccc1Oc1ccc(Cl)cc1Cl [Triclosan] was run?
Its remaining activity at 1.25 µM is 101%.

What about the remaining activity at 3.75 µM ([2]; Well no.=8252) of the same compound?
The remaining activity at 3.75 µM was 98.2%.

Which remaining activity at 1.25 µM ([1]; Well no.=4496) does the source give for CCCCCCCCCCCCCCCCCCCCCCC(=O)O [Tricosanoic acid] here?
The remaining activity at 1.25 µM was 91.3%.

What about the remaining activity at 3.75 µM ([2]; Well no.=4496) of the same compound?
The remaining activity at 3.75 µM was 92.7%.

Which results are given for CCCCCCCCCCCCC(=O)O [Tridecanoic acid]?
remaining activity at 1.25 µM ([1]; Well no.=4260): 106%; remaining activity at 3.75 µM ([2]; Well no.=4260): 98%

With CN1CCN(CCCN2c3ccccc3Sc3ccc(C(F)(F)F)cc32)CC1 [Trifluoperazine (dihydrochloride)] as the compound, how does the remaining activity at 1.25 µM ([1]; Well no.=6369) read?
Its remaining activity at 1.25 µM is 105%.

And the remaining activity at 3.75 µM ([2]; Well no.=6369)?
Its remaining activity at 3.75 µM is 105%.

Which results are given for CN1CCN(CCCN2c3ccccc3Sc3ccc(C(F)(F)F)cc32)CC1 [Trifluoperazine dihydrochloride]?
remaining activity at 1.25 µM ([1]; Well no.=1326): 101%; remaining activity at 3.75 µM ([2]; Well no.=1326): 100%

What does the source list for O=C(CCCN1CCC(O)(c2cccc(C(F)(F)F)c2)CC1)c1ccc(F)cc1 [Trifluperidol hydrochloride]?
remaining activity at 1.25 µM ([1]; Well no.=1376): 96.4%; remaining activity at 3.75 µM ([2]; Well no.=1376): 94.4%
